Consider one compound from patent US20130071414A1, “ENGINEERED CD19-SPECIFIC T LYMPHOCYTES THAT COEXPRESS IL-15 AND AN INDUCIBLE CASPASE-9 BASED SUICIDE GENE FOR THE TREATMENT OF B-CELL MALIGNANCIES” (priority 2011, published 2013).

Assay [1] deals with iC9/CAR.19/IL-15^+ T cells expressing eGFP-FFLuc. The assay can be described thus: In vivo validation of the suicide gene, Raji-engrafted mice with labeled iC9/CAR.19/IL-15^+ T cells. Further details: species or system SCID mice. Conditions: Raji i.v., after CID i.p. How it is done:
In vivo validation of the suicide gene. To evaluate the functionality of the suicide gene, mice bearing tumor cells and receiving iC9/CAR.19/IL-15^+ T cells labeled with the eGFP-FFluc gene were treated with CID ([…]) i.p. 2 to 3 doses every other day.^27 CID treatment was initiated when the T-cell bioluminescent signal was exponentially increasing, indicating active expansion of the transgenic cells. Mice were then imaged as described above.
Mice were engrafted i.v. with Raji tumor cells and then infused with eGFP-FFLuc labeled iC9/CAR.19/IL-15^+ T cells. These cells localized and expanded at the tumor site by day 14 after infusion as assessed by bioluminescence measurement (FIG. 6b).

Assay [2] has as its system inducible caspase-9 suicide gene in iC9/CAR.19/IL-15^+ T cells. To be noted: previous observation (ref 27); cited from earlier work.

Consider `CC[C@H](C(=O)N1CCCC[C@H]1C(=O)O[C@H](CCc1ccc(OC)c(OC)c1)c1cccc(OCC(=O)NCC(CNC(=O)COc2cccc([C@@H](CCc3ccc(OC)c(OC)c3)OC(=O)[C@@H]3CCCCN3C(=O)[C@@H](CC)c3cc(OC)c(OC)c(OC)c3)c2)CN(C)C)c1)c1cc(OC)c(OC)c(OC)c1` [CID, AP20187], for which, in assay [1], the “T-cell bioluminescence after administration of the CID” value is listed as 1.3×10^5±3×10^4 p/s/cm^2/sr. Besides, the “Fraction of cells that escape apoptosis/necrosis shortly after exposure to the dimerizer drug” value in assay [2] is less than 10%.
